Results taken from PMC11984871, “Perillaldehyde Improves Parkinson‐Like Deficits by Targeting G3BP Mediated Stress Granule Assembly in Preclinical Models” (Advanced Science, 2025).

Target: T1, G3BP1 (Homo sapiens, UniProt Q13283)
T1 construct: full-length, EGFP-tagged (mEGFP), recombinant in E. coli BL21(DE3) from pET-28a, size-exclusion purified; immobilized on CM5 chip
Assay: SPR (Biacore 8K, CM5 chip, immobilized EGFP-G3BP1, […] Langmuir fit)
Format: binding

T1 sequence (Q13283 2-466): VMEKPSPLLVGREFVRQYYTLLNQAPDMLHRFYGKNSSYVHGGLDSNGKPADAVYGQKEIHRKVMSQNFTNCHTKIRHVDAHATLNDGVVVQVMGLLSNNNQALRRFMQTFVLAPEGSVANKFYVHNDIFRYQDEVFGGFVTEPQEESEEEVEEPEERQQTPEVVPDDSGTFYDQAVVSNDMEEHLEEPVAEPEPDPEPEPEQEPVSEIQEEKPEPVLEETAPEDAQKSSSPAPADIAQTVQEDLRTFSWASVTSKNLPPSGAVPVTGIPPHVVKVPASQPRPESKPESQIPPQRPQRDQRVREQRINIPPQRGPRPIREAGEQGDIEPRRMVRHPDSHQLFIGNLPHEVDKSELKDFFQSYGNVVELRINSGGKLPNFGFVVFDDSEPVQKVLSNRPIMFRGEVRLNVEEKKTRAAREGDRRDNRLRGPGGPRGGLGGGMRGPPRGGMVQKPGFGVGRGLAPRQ

SMILES | Kd [µM]
C=C(C)[C@@H]1CC=C(C=O)CC1 [perillaldehyde] | 5.49
CC(=NNC(=O)c1ccccc1O)c1ccccc1O [C108] | 2.71
